Data taken from patent US7268118B2, “Thymosin β4 compositions” (United States of America as represented by The Secretary of …, priority 1998, dated 2007).

Experiments:
[1] = tested on: wounds of steroid treated rats; assay: Impaired healing model (hydrocortisone treated rats); assay type: in vivo, rat
Procedure: Steroid treatment reduces the rate of wound repair in mammals. Rats treated with steroids such as hydrocortisone serve as a model of impaired wound healing due to the delay observed in wound closure. Animals were injected intramuscularly everyday with hydrocortisone.

Corneal Epithelial Cell = assay: Corneal epithelial cell migration assay in Boyden chamber; assay type: cell-based
Procedure: Corneal Epithelial Cell migration assays were carried out in Boyden chamber using 12 μm pore polyester membranes (Poretics, Livermore, Calif.) coated with a 0.1 mg/ml solution of collagen IV in dH2O (Trevigen, Gaithersburg, Md.). Filters were then dried at least 1 h. Cells were cultured and resuspended in Eagle's Minimal Essential Medium with 0.05 mM Ca^2+. The bottom chamber was loaded with EMEM containing 0.01, 0.1, 10, 100, and 1000 ng/ml of synthetic Tβ4. Conditioned medium from primary dermal fibroblasts and/or keratinocyte growth factor was added to several wells as a positive control. Cells were added to the upper chamber at a concentration of 50,000 cells per well. Chambers were incubated at 35 C/7% CO2 for 4-5 hours and the filters were then fixed and stained using Diff-Quik (Baxter Healthcare Corporation, McGraw Park, Ill.). The cells that migrated through the filter were quantitated by counting the center of each well at 10× using an Olympus CK2 microscope. Each condition was assayed in triplicate wells and each experiment was repeated four times with different preparations of cells. […] Migration was enhanced 2-3 fold over migration in the presence of media alone (FIG. 7) with the highest level of migration seen at 100 ng/ml of Tβ4.

primary keratinocytes = assay: Keratinocyte migration assay in Boyden chamber; assay type: cell-based, mice
Procedure: Primary keratinocytes were prepared from either Balb/c or CD-1 newborn mice as described previously (Dlugosz et al., 1995). Cells were plated in calcium- and magnesium-free Eagle's Minimal Essential Medium (EMEM) containing 8% fetal calf serum treated with 8% Chelex (Bio-Rad Laboratories, Hercules, Calif.), 20 units/ml penicillin-streptomycin, and the calcium concentration was adjusted to 0.25 mM. The following day, cultures were washed with calcium- and magnesium-free phosphate buffered saline, treated briefly with Trypsin (Life Technologies, Gaithersburg, Md.), washed with culture medium and resuspended in EMEM containing 0.05 mM calcium. Cells were used immediately in migration assays.
Keratinocyte migration assays were carried out in Boyden chamber using 12 μm pore polyester membranes (Poretics, Livermore, Calif.) coated with a 0.1 mg/ml solution of collagen IV in dH2O (Trevigen, Gaithersburg, Md.). Filters were then dried at least 1 h. Cells were harvested using Versene or Trypsin (Life Technologies, Gaithersburg, Md.) and resuspended in Eagle's minimal essential medium with 0.05 mM Ca^2+. The bottom chamber was loaded with EMEM containing 0.01, 0.1, 10, 100, and 1000 ng/ml of synthetic Tβ4. […] The cells that migrated through the filter were quantitated by counting the center of each well at 10× using an Olympus CK2 microscope. […]

[2] = tested on: full thickness cutaneous rat wound; assay: Full thickness punch biopsy wound healing in rats; assay type: in vivo; conditions: for decrease in wound width relative to saline treated controls: intraperitoneal 60 μg in 300 μl
Procedure: Full thickness 8 mm punch biopsy wounds were made on the dorsal surface of rats as previously reported (Bhartiya et al., J. Cell. Physiol. 150:312, 1992; Sihhu et al., J. Cell. Physiol. 169:108, 1996) and Tβ4 was given topically at the time of wounding (5 μg in 50 μl) and again after 48 hours. Controls for the topical treatment received identical amounts of saline at the time of wounding and at 48 hours. Additional rats received intraperitoneal injections at the time of wounding (60 μg in 300 μl) and again every other day (e.g., days 0, 2, 4, and 6). Controls for these animals received identical amounts of saline intra-peritoneally on the same injection schedule. On days 4 and 7 post-wounding, measurements were made on the wound size. At days 8 and 9 post-wounding, tissue was collected and fixed in 10% buffered formalin. The samples were sectioned and stained with H&E and Masson's Trichrome (American Histolabs, Gaithersburg, Md.).
Histological sections were used to measure the re-epithelialization and the contraction of the wound using an ocular micrometer. Epidermal migration was determined by measuring the lengths of the tongues of epithelium migrating form either side of the wound over the wound bed from the zone of proliferation at the margin of the uninjured and wounded skin. Epidermal thickness was also measured beginning at the junction of the uninjured and proliferating epidermis. The thickness was measured vertically from the basement membrane to the most superficial layer of the migrating epidermis at every 200 microns. The mean epidermal thickness of each migrating tongue of epidermis was then computed from each wound. Vessel counts were performed by first identifying vascular spaces by their endothelial lining. All such vessels in the wound bed were counted including those at the junction of the dermis and the subcutis, since angiogenesis into the wounds occurs to a great extent from these vessels. The numbers were averaged into vessel counts per 10 high powered fields (40×).
The effect of Tβ4 on wound healing was studied in a full thickness cutaneous rat wound model. […] This model allowed measurement of two parameters: the re-epithelialization (gap) and the contraction (width) of the wound.

[3] = tested on: de-epithelialized Rat corneas; assay: In vivo corneal re-epithelialization
Procedure: To determine the effect of Tβ4 on corneal re-epithelialization in vivo, Rat corneas were de-epithelialized and treated with Tβ4. Filters were soaked in heptanol, applied to the eye for 30 seconds, and then the epithelium was scraped. Various concentration of Tβ4 in saline was applied to the eye and at 24 hours the rats were sacrificed. The eyes were fixed, sectioned and the degree of corneal epithelial migration (as measured in pixels) was determined using a microscope with an internal caliper by a masked observer.

[4] = intraperitoneal injection, day 4
[5] = intraperitoneal injection, day 7

Question: For thymosin β4 [Tβ4], which “decrease in gap size” value [1, 4] is on record?
Answer: 28%

Question: What about the “decrease in wound width” value [1, 4] of the same substance?
Answer: 14%

Question: What about the “decrease in gap size” value [1, 5] of the same substance?
Answer: 26%

Question: What about the “decrease in wound width” value [1, 5] of the same substance?
Answer: 10%

Question: What about the “level of healing in steroid treated rats” value ([1]; topical or intraperitoneal) of the same substance?
Answer: significant increase in the level of healing

Question: What about the “gap or width closure compared to saline treatment” value ([1]; topical, day 4, N=3) of the same substance?
Answer: ≤ 7%

Question: What about the “decrease in gap compared to saline treatment” value ([1]; topical, day 7) of the same substance?
Answer: 39%

Question: What about the “decrease in wound width” value ([1]; topical, day 7) of the same substance?
Answer: 23%

Question: And the “corneal epithelial cell migration over media alone” value (Corneal Epithelial Cell; 4-5 hours of exposure)?
Answer: 2-3 fold

Question: What about the “concentration with the highest level of migration” value (Corneal Epithelial Cell; tested 0.01-1000 ng/ml) of the same substance?
Answer: 100 ng/mL

Question: And the “migration at the maximal responding dose versus positive control” value (primary keratinocytes)?
Answer: exceeded the positive control

Question: And the “keratinocyte migration over media alone” value (primary keratinocytes; 4-5 hours, filters coated with collagen IV)?
Answer: 2-3 fold

Question: What about the “increase in the number of vessels in treated wounds” value ([2]; 7 day wounds) of the same substance?
Answer: about 2 fold

Question: What about the “decrease in wound width as compared to the saline controls” value ([2]; FIG. 2, topical 5 μg in 50 μl, as early as 4 days after wounding, continued until day 7) of the same substance?
Answer: 15%

Question: What about the “Epidermal Migration” value ([2]; I.P.) of the same substance?
Answer: 3168.3 ± 38.4 μm

Question: And the “Epidermal Thickness” value ([2]; I.P.)?
Answer: 135.0 ± 11.7 μm

Question: What about the “Vessels/10 HPF” value ([2]; I.P.) of the same substance?
Answer: 2415.0 ± 24.3

Question: And the “Epidermal Migration” value ([2]; Topical)?
Answer: 3668.7 ± 56.6 μm

Question: And the “Epidermal Thickness” value ([2]; Topical)?
Answer: 142.3 ± 19.8 μm

Question: And the “Vessels/10 HPF” value ([2]; Topical)?
Answer: 2186.0 ± 11.8

Question: What about the “re-epithelialization of the wound (histology)” value ([2]; day 7, intraperitoneal 60 μg/300 μl on alternate days) of the same substance?
Answer: Increased re-epithelialization

Question: And the “neovascularization of the dermis (histology)” value ([2]; day 7, intraperitoneal and topical)?
Answer: significant new capillaries

Question: What about the “re-epithelialization of the wound (histology)” value ([2]; day 7, topical 5 μg/50 μl) of the same substance?
Answer: complete reepithelialization

Question: And the “thickness of the migrating epidermis versus control” value ([2]; either Tβ4 treatment (I.P., topical))?
Answer: no difference

Question: What about the “effect on wound healing at lower dose” value ([2]; intraperitoneal 6 μg in 300 μl) of the same substance?
Answer: no effect

Question: And the “effect on wound healing at lower dose” value ([2]; intraperitoneal 30 μg in 300 μl)?
Answer: reduced

Question: And the “decrease in wound width relative to saline treated controls” value ([2]; day 4)?
Answer: 18%

Question: And the “decrease in wound width relative to saline treated controls” value ([2]; day 7)?
Answer: 11%

Question: And the “decrease in gap size relative to saline treated controls” value ([2]; intraperitoneal, 4th day post wounding)?
Answer: 42%

Question: What about the “migration of epidermal tongues as compared to controls” value ([2]; intraperitoneally treated wounds) of the same substance?
Answer: statistically significant increase

Question: What about the “number of macrophages in the wounds” value ([2]; rat, in vivo) of the same substance?
Answer: No increases

Question: And the “effect on wound healing at lower dose” value ([2]; topical 0.5 μg in 50 μl)?
Answer: no effect

Question: And the “effect on wound healing at lower dose” value ([2]; topical 2.5 μg in 50 μl)?
Answer: reduced

Question: What about the “wound healing as compared to untreated wounds” value ([2]; topical or intraperitoneal) of the same substance?
Answer: significantly accelerated wound healing

Question: What about the “increase in migration of epidermal tongues over the wound bed” value ([2]; topical treatment) of the same substance?
Answer: 1.5 fold

Question: And the “decrease in gap length as compared to saline controls” value ([2]; topical, 4 days after wounding)?
Answer: 18%

Question: And the “decrease in width, treated versus controls” value ([2]; topical, time not stated (FIG. 2))?
Answer: about 15%

Question: What about the “decrease in gap, treated versus controls” value ([2]; topical, time not stated (FIG. 3)) of the same substance?
Answer: about 15%

Question: What about the “decrease in gap size” value ([2]; wounds treated for 7 days, route not stated) of the same substance?
Answer: 62%

Question: What about the “re-epithelialization of the cornea over untreated control” value ([3]; about 1 to 25 μg of Tβ4 in saline applied to the eye, 24 hours) of the same substance?
Answer: 2 fold

Question: What about the “inflammation of treated eyes compared to non-treated corneas” value ([3]; rat, in vivo) of the same substance?
Answer: reduced inflammation
